According to US11286268B1, “EIF4E-inhibiting compounds and methods” (EFFECTOR THERAPEUTICS, INC., priority 2019, dated 2022):
Like-named read-outs stand apart in the source and are kept apart here.

Biological target: recombinant eIF4E (Homo sapiens (Human), UniProt P06730)
Experiment: Fluorescence polarization competition assay for eIF4E binding potency
Summary of the method: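 Competition of test compound against 20 nM EDA-m^7GDP-ATTO-550 for 75 nM recombinant eIF4E, pre-incubated 5 min, in 20 mM Tris pH 7.5, 100 mM NaCl, 1 mM DTT, 0.02% Tween-20, 1% DMSO. Equilibrated 30 min at room temperature, dark; fluorescence polarization read. IC50 from 8-point, 3-fold dilution series.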

[1] = fluorescence polarization competition, 75 nM recombinant eIF4E, 20 nM EDA-m7GDP-ATTO-550, IC50 class, read-out: elF4E FP
[2] = inhibition of eIF4E/EDA-m7GDP-ATTO-550 binding by 50%, Table 4B calculated values, read-out: IC50

Chain of recombinant eIF4E (P06730 whole entry): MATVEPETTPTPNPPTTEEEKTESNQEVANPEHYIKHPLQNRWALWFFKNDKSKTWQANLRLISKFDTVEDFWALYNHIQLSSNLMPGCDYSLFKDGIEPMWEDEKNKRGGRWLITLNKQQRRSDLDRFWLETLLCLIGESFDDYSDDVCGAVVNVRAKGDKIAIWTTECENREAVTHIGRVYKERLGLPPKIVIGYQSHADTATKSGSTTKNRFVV

Row | IC50 [1] [nM] | IC50 [2] [nM] | SMILES
1 | < 50 | 6.61 | Cc1cc(-c2cc(Cl)ccc2OCCn2c(C)nc3cc(C(F)(F)F)c(N4CCS(=O)(=O)CC4)c(C#N)c3c2=O)c2scc(C(=O)O)c2n1 [compound 867]
2 | < 50 | 25.4 | Cc1cc(-c2cc(Cl)ccc2OCCn2c(C)nc3cnc(OC4CNC4)c(C#N)c3c2=O)c2sc(C)c(C(=O)O)c2n1 [compound 869]
3 | < 50 |  | Cc1cc(-c2cc(Cl)ccc2OCCn2c(C)nc3c(C)nc(-c4c(C)cccc4F)c(C#N)c3c2=O)c2scc(C(=O)O)c2n1 [compound 871]
4 | < 50 | 15.7 | Cc1cc(-c2ncc3nc(C)n(CCOc4ccc(Cl)cc4-c4cc(C)nc5c(C(=O)O)csc45)c(=O)c3c2C#N)cc(C)n1 [compound 873]
5 | < 50 | 41.5 | Cc1cc(-c2cc(Cl)ccc2OCCn2c(C)nc3c(C)nc(-c4cnc(N)cc4F)c(C#N)c3c2=O)c2scc(C(=O)O)c2n1 [compound 874]
6 | < 50 |  | Cc1cc(-c2cc(Cl)ccc2OCCn2c(C)nc3c(C)nc(N4CCN(C)CC4)c(C#N)c3c2=O)c2scc(C(=O)O)c2n1 [compound 875]
7 | 50 to 1000 | 73.3 | Cc1cc(-c2cc(Cl)ccc2OCCn2c(C)nc3cc(C(F)(F)F)c(Br)c(C#N)c3c2=O)c2scc(C(=O)O)c2n1 [compound 876]
8 | < 50 | 9.63 | Cc1cc(-c2cc(Cl)ccc2OCCn2c(C)nc3c(C)nc(N4CCNCC4)c(C#N)c3c2=O)c2scc(C(=O)O)c2n1 [compound 878]
9 | < 50 | 6.62 | Cc1nc2cnc(C3=CCC(F)(F)CC3)c(C#N)c2c(=O)n1CCOc1ccc(Cl)cc1-c1ccnc2c(C(=O)O)csc12 [compound 882]
10 | < 50 | 12.8 | Cc1cc(-c2cc(Cl)ccc2OCCn2c(C)nc3cnc(N4CC[C@@H](O)C4)c(C#N)c3c2=O)c2scc(C(=O)O)c2n1 [compound 883]
11 | < 50 | 5.85 | Cc1cc(-c2cc(Cl)ccc2OCCn2c(C)nc3cnc(N4CCC(=O)C4)c(C#N)c3c2=O)c2scc(C(=O)O)c2n1 [compound 884]
12 | < 50 | 40.2 | Cc1nc2cnc(C3=CCN(C)CC3)c(C#N)c2c(=O)n1CCOc1ccc(Cl)cc1-c1ccnc2c(C(=O)O)csc12 [compound 888]
13 | < 50 | 1.4 | COc1ncc2nc(C)n(CCOc3ccc(Cl)cc3-c3cc(C)nc4c(C(=O)O)csc34)c(=O)c2c1C#N [compound 897]
14 | < 50 | 11.2 | Cc1ncc(-c2cc(Cl)ccc2OCCn2c(C)nc3cnc(C4CC4)c(C#N)c3c2=O)c2scc(C(=O)O)c12 [compound 900]
15 | < 50 | 45.6 | Cc1cc(-c2cc(Cl)ccc2OCCn2c(C)nc3cc(C(F)(F)F)c(-c4ccncc4C)c(C#N)c3c2=O)c2scc(C(=O)O)c2n1 [compound 901]
16 | < 50 | 14.2 | Cc1cnc(C)c(-c2c(C(F)(F)F)cc3nc(C)n(CCOc4ccc(Cl)cc4-c4cc(C)nc5c(C(=O)O)csc45)c(=O)c3c2C#N)c1 [compound 902]
17 | < 50 | 11.2 | Cc1cc(-c2cc(Cl)ccc2OCCn2c(C)nc3cc(C(F)(F)F)c(-c4cncc(C)c4C)c(C#N)c3c2=O)c2scc(C(=O)O)c2n1 [compound 903]
18 | < 50 | 4.19 | Cc1cc(-c2cc(Cl)ccc2OCCn2c(C)nc3cc(C(F)(F)F)c(-c4ccc(C)c(C)n4)c(C#N)c3c2=O)c2scc(C(=O)O)c2n1 [compound 904]
19 | < 50 | 9.38 | Cc1cc(C)nc(-c2c(C(F)(F)F)cc3nc(C)n(CCOc4ccc(Cl)cc4-c4cc(C)nc5c(C(=O)O)csc45)c(=O)c3c2C#N)c1 [compound 905]
20 | < 50 | 17.6 | Cc1ccc(C)c(-c2c(C(F)(F)F)cc3nc(C)n(CCOc4ccc(Cl)cc4-c4cc(C)nc5c(C(=O)O)csc45)c(=O)c3c2C#N)n1 [compound 906]
21 | < 50 | 7.76 | Cc1cc(-c2cc(Cl)ccc2OCCn2c(C)nc3cc(C(F)(F)F)c(-c4cn(C)cn4)c(C#N)c3c2=O)c2scc(C(=O)O)c2n1 [compound 907]
22 | < 50 | 13.2 | Cc1cc(-c2cc(Cl)ccc2OCCn2c(C)nc3cc(C(F)(F)F)c(CC(=O)N(C)C)c(C#N)c3c2=O)c2scc(C(=O)O)c2n1 [compound 909]
23 | < 50 | 17.5 | Cc1cc(-c2cc(Cl)ccc2OCCn2c(C)nc3c(-c4ccccc4)nc(C4CC4)c(C#N)c3c2=O)c2scc(C(=O)O)c2n1 [compound 910]
24 | < 50 | 17.1 | Cc1cc(-c2nc(C)c3nc(C)n(CCOc4ccc(Cl)cc4-c4cc(C)nc5c(C(=O)O)csc45)c(=O)c3c2C#N)ccn1 [compound 911]
25 | < 50 | 8.98 | Cc1cc(-c2cc(Cl)ccc2OCCn2c(C)nc3cnc(C4CCC4)c(C#N)c3c2=O)c2scc(C(=O)O)c2n1 [compound 912]
26 | < 50 | 16.2 | Cc1cc(-c2cc(Cl)ccc2OCCn2c(C)nc3cnc(C(C)(F)F)c(C#N)c3c2=O)c2scc(C(=O)O)c2n1 [compound 913]
27 | < 50 | 20.7 | Cc1cc(-c2cc(Cl)ccc2OCCn2c(C)nc3cnc(C(F)F)c(C#N)c3c2=O)c2scc(C(=O)O)c2n1 [compound 914]

Further lines, the compound ahead of its results:

Row | SMILES | IC50 [1] [nM] | IC50 [2] [nM]
28 | Cc1nc2cnc(N3CCN(CC(F)(F)F)CC3)c(C#N)c2c(=O)n1CC#Cc1ccc(Cl)cc1-c1ccnc2c(C(=O)O)csc12 [compound 860] | < 50 | 10.3
29 | Cc1nc2c(N(C)C3CCN(CC(F)(F)F)CC3)ncc(C#N)c2c(=O)n1CCOc1ccc(Cl)cc1-c1ccnc2c(C(=O)O)csc12 [compound 861] | < 50 | 24.6
30 | Cc1nc2c(N(C)C3CCN(C)CC3F)ncc(C#N)c2c(=O)n1CCOc1ccc(Cl)cc1-c1ccnc2c(C(=O)O)csc12 (centres unmarked) [compound 862] | < 50 | 20.9
31 | Cc1nc2c(N(C)C3CC4CCC(C3)N4C)ncc(C#N)c2c(=O)n1CCOc1ccc(Cl)cc1-c1ccnc2c(C(=O)O)csc12 (centres unmarked) [compound 863] | < 50 | 45.5
32 | Cc1nc2c(N(C)C3CCN(C)C(C(F)F)C3)ncc(C#N)c2c(=O)n1CCOc1ccc(Cl)cc1-c1ccnc2c(C(=O)O)csc12 (centres unmarked) [compound 864] | < 50 | 47.9
33 | Cc1nc2cnc(N(C)C3CCN(CC(F)(F)F)CC3)c(C#N)c2c(=O)n1CCOc1ccc(Cl)cc1-c1ccnc2c(C(=O)O)csc12 [compound 865] | < 50 | 28.4
34 | Cc1nc2cnc(N(C)C3CCN(C)C(C(F)F)C3)c(C#N)c2c(=O)n1CCOc1ccc(Cl)cc1-c1ccnc2c(C(=O)O)csc12 (centres unmarked) [compound 866] | < 50 | 16.8
35 | Cc1cc(-c2cc(Cl)ccc2OCCn2c(C)nc3cnc(N4CC5CCC(C4)N5C)c(C#N)c3c2=O)c2sc(C)c(C(=O)O)c2n1 [compound 868] | < 50 | 17.2
36 | Cc1cc(-c2cc(Cl)ccc2OCCn2c(C)nc3c(C)nc(-c4c(C)cccc4C)c(C#N)c3c2=O)c2scc(C(=O)O)c2n1 [compound 872] | < 50 | 
37 | Cc1cc(-c2cc(Cl)ccc2OCCn2c(C)nc3cc(C(F)(F)F)c(C4CCNCC4)cc3c2=O)c2sc(C)c(C(=O)O)c2n1 [compound 877] | 50 to 1000 | 234
38 | Cc1cc(-c2cc(Cl)ccc2OCCn2c(C)nc3cc(C(F)(F)F)c(N4CCNCC4)c(C#N)c3c2=O)c2sc(C)c(C(=O)O)c2n1 [compound 879] | < 50 | 7.31
39 | Cc1nc2cc(C(F)(F)F)c(C3CCNCC3)cc2c(=O)n1CCOc1ccc(Cl)cc1-c1ccnc2c(C(=O)O)csc12 [compound 880] | 50 to 1000 | 67.9
40 | Cc1nc2cc(C(F)(F)F)c(C3CCN(C)CC3)cc2c(=O)n1CCOc1ccc(Cl)cc1-c1ccnc2c(C(=O)O)csc12 [compound 881] | < 50 | 20.4
41 | Cc1nc(N2CCN(CC(F)(F)F)CC2)c(C#N)c2c(=O)n(CCOc3ccc(Cl)cc3-c3ccnc4c(C(=O)O)csc34)c(C)nc12 [compound 886] | < 50 | 10.5
42 | Cc1sc2c(-c3cc(Cl)ccc3OCCn3c(C)nc4cc(C(F)(F)F)c(C5CCNCC5)c(C#N)c4c3=O)ccnc2c1C(=O)O [compound 887] | < 50 | 20.1
43 | Cc1nc2cnc(C3=CCN(CC(F)(F)F)CC3)c(C#N)c2c(=O)n1CCOc1ccc(Cl)cc1-c1ccnc2c(C(=O)O)csc12 [compound 889] | < 50 | 12.4
44 | Cc1nc2cnc(O)c(C#N)c2c(=O)n1CC#Cc1ccc(Cl)cc1-c1ccnc2c(C(=O)O)csc12 [compound 891] | < 50 | 13.7
45 | Cc1nc2cnc(N3CC4(CN(CCF)C4)C3)c(C#N)c2c(=O)n1CC#Cc1ccc(Cl)cc1-c1ccnc2c(C(=O)O)csc12 [compound 892] | < 50 | 36
46 | Cc1nc2cnc(N3CC4(CN(CC(F)F)C4)C3)c(C#N)c2c(=O)n1CC#Cc1ccc(Cl)cc1-c1ccnc2c(C(=O)O)csc12 [compound 893] | < 50 | 20.1
47 | Cc1nc2cnc(N3CC4(CN(CCOC(F)(F)F)C4)C3)c(C#N)c2c(=O)n1CC#Cc1ccc(Cl)cc1-c1ccnc2c(C(=O)O)csc12 [compound 894] | < 50 | 21.6
48 | Cc1nc2cnc(N3CCN(CC4CC4)CC3)c(C#N)c2c(=O)n1CC#Cc1ccc(Cl)cc1-c1ccnc2c(C(=O)O)csc12 [compound 895] | < 50 | 22.9
49 | CCc1cc(-c2cc(Cl)ccc2OCCn2c(C)nc3cc(CN(C)C)c(OC(F)F)c(C#N)c3c2=O)c2scc(C(=O)O)c2n1 [compound 896] |  | 1.57
50 | Cc1sc2c(-c3cc(Cl)ccc3OCCn3c(C)nc4cc(C(F)(F)F)c(C)c(C#N)c4c3=O)cn(C)c(=O)c2c1C(=O)O [compound 899] | < 50 | 7.44
51 | Cc1cc(-c2cc(Cl)ccc2C#CCn2c(C)nc3cc(C(F)(F)F)c(-c4ccncn4)c(C#N)c3c2=O)c2scc(C(=O)O)c2n1 [compound 908] | < 50 | 3.26
